We go through 22 molecules from PubChem BioAssay AID330 (DTP/NCI, 2004).

This assay has as its system P388 leukemia ip, CD2F1 mice, survival T/C. Briefly: NCI In Vivo Anticancer Drug Screen. Data for tumor model P388 Leukemia (intraperitoneal) in CD2F1 (CDF1) mice. The settings on record: endpoint: median survival time, higher = longer survival. The gist of the method: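 Mice carrying the transplanted tumor received test compound or vehicle. Survival was recorded in each group, and the value is the treated-group measurement divided by that of the vehicle-treated control group.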

[1] abbreviates: dose: 50.0 mg/kg/injection, schedule: Q01DX009 (ip), vehicle: saline with Tween-80.
Where [2] appears, read: dose: 100.0 mg/kg/injection, schedule: Q01DX009 (ip), vehicle: saline with Tween-80.
Where [3] appears, read: dose: 100.0 mg/kg/injection, schedule: Q04DX003 (ip), vehicle: saline with Tween-80.
The mark [4] stands for this setting: dose: 200.0 mg/kg/injection, schedule: Q04DX003 (ip), vehicle: saline with Tween-80.
Setting [5] is: dose: 400.0 mg/kg/injection, schedule: Q04DX003 (ip), vehicle: saline with Tween-80.
Setting [6] is: dose: 50.0 mg/kg/injection, schedule: Q01DX005 (ip), vehicle: saline.
[7] abbreviates: dose: 100.0 mg/kg/injection, schedule: Q01DX005 (ip), vehicle: saline.
[8] abbreviates: dose: 200.0 mg/kg/injection, schedule: Q01DX005 (ip), vehicle: saline.

Several values for one entry are separate records, joined by “and”; a condition that tells them apart may be missing. Identical values can stand only once. Inconclusive results and toxic doses are left out. Square brackets hold non-standard residues; d marks the D form. Peptide text beside a SMILES is read from it. ξ: configuration not given here. ξA = CC(N)C(=O)O

On to `CCOC(=O)N/N=C/c1ccc2c(c1)c1ccccc1n2CC`, for which the T/C is, setting by setting: (dose: 50.0 mg/kg/injection, schedule: Q01DX005 (ip), vehicle: Klucel (hydroxypropylcellulose) (HPC)) 90 % of control; (dose: 100.0 mg/kg/injection, schedule: Q01DX005 (ip), vehicle: Klucel (hydroxypropylcellulose) (HPC)) 98 % of control; (dose: 200.0 mg/kg/injection, schedule: Q01DX005 (ip), vehicle: Klucel (hydroxypropylcellulose) (HPC)) 90 % of control.
Consider `CC1(C)CC(C)(C)C([Se]C2=C(O)C(=O)C(C)(C)CC2(C)C)=C(O)C1=O`, for which the T/C is, setting by setting: under setting [1], 100 % of control; under setting [2], 101 % of control; (dose: 200.0 mg/kg/injection, schedule: Q01DX009 (ip), vehicle: saline with Tween-80) 94 % of control.
In the case of `O=C1NC(=O)C2(CC3CCCCC3CC2c2ccccc2)N1` (stereo not given), the T/C runs as follows: under setting [3], 89 % of control; under setting [4], 91 % of control; under setting [5], 100 % of control.
In the case of `N/C(=N/S(=O)(=O)c1cccc([N+](=O)[O-])c1)NS(=O)(=O)c1ccc([N+](=O)[O-])cc1`, the T/C was 101 % of control (dose: 7.5 mg/kg/injection, schedule: Q01DX009 (ip), vehicle: saline with Tween-80); 113 % of control (dose: 15.0 mg/kg/injection, schedule: Q01DX009 (ip), vehicle: saline with Tween-80); 110 % of control (dose: 30.0 mg/kg/injection, schedule: Q01DX009 (ip), vehicle: saline with Tween-80).
Turning to `Cc1nc2ccccc2c(=O)n1C(C)C`, the T/C (dose: 50.0 mg/kg/injection, schedule: Q01DX009 (ip), vehicle: saline) is 99 % of control; the T/C (dose: 100.0 mg/kg/injection, schedule: Q01DX009 (ip), vehicle: saline) was 100 % of control; the T/C (dose: 200.0 mg/kg/injection, schedule: Q01DX009 (ip), vehicle: saline) was 104 % of control.
As for `CN(C)CCNc1ccc(NCCN(C)C)c2c1C(=O)c1ccccc1C2=O`, the T/C by setting is: (dose: 2.5 mg/kg/injection, schedule: Q01DX009 (ip), vehicle: distilled water + Tween-80) 117 % of control; (dose: 5.0 mg/kg/injection, schedule: Q01DX009 (ip), vehicle: distilled water + Tween-80) 124 % of control; (dose: 20.0 mg/kg/injection, schedule: Q01DX009 (ip), vehicle: acid diluted with saline) 163 % of control; (dose: 20.0 mg/kg/injection, schedule: Q01DX009 (ip), vehicle: distilled water + Tween-80) 159 % of control; (dose: 40.0 mg/kg/injection, schedule: Q01DX009 (ip), vehicle: acid diluted with saline) 202 % of control; (dose: 40.0 mg/kg/injection, schedule: Q01DX009 (ip), vehicle: distilled water + Tween-80) 162 % of control.
As for `CC(NC(=O)CNC(=O)CNC(=O)CNC(=O)CN)C(=O)O` (stereo not given) (H-GGGG[ξA]-OH), the T/C was 100 % of control under setting [6], 103 % of control under setting [7] and 101 % of control under setting [8].
On to `Cc1ccc(SC2=C(Sc3ccc(C)cc3)C(=O)c3ccccc3C2=O)cc1`, for which the T/C is 102 % of control and 88 % of control (dose: 25.0 mg/kg/injection, schedule: Q01DX009 (ip), vehicle: saline with Tween-80); 116 % of control and 96 % of control under setting [1]; 99 % of control and 123 % of control under setting [2].
For `CCC1=C(O)C(=O)C(C)(C)C1=O`, the T/C is 99 % of control and 101 % of control under setting [6]; 100 % of control and 96 % of control under setting [7]; 90 % of control and 98 % of control under setting [8].
As to `Cc1c2c[n+]([O-])ccc2c(C)c2c1c1ccccc1n2C`, the T/C is, setting by setting: (dose: 12.5 mg/kg/injection, schedule: Q04DX002 (ip), vehicle: saline with Tween-80) 101 % of control; (dose: 25.0 mg/kg/injection, schedule: Q04DX002 (ip), vehicle: saline with Tween-80) 101 % of control; (dose: 50.0 mg/kg/injection, schedule: Q04DX002 (ip), vehicle: saline with Tween-80) 103 % of control; (dose: 100.0 mg/kg/injection, schedule: Q04DX002 (ip), vehicle: saline with Tween-80) 107 % of control; (dose: 200.0 mg/kg/injection, schedule: Q04DX002 (ip), vehicle: saline with Tween-80) 113 % of control.
Take `C/C(=N\N)c1cnc(NN)nc1C`: the T/C runs as follows: (dose: 7.5 mg/kg/injection, schedule: Q01DX005 (ip), vehicle: saline) 106 % of control; (dose: 15.0 mg/kg/injection, schedule: Q01DX005 (ip), vehicle: saline) 103 % of control.
As for `O=[Se](O)O`, the T/C was 106 % of control and 110 % of control (dose: 0.78 mg/kg/injection, schedule: Q01DX005 (ip), vehicle: water); 114 % of control and 119 % of control (dose: 1.56 mg/kg/injection, schedule: Q01DX005 (ip), vehicle: water); 114 % of control (dose: 3.12 mg/kg/injection, schedule: Q01DX005 (ip), vehicle: water); 117 % of control (dose: 6.25 mg/kg/injection, schedule: Q01DX005 (ip), vehicle: water).
For `C[C@H]1CCC/C=C/[C@@H]2C[C@H](O)C[C@H]2[C@H](O)/C=C/C(=O)O1`, the T/C reads like this: (dose: 100.0 mg/kg/injection, schedule: Q04DX003 (ip), vehicle: Klucel (hydroxypropylcellulose) (HPC)) 104 % of control; (dose: 200.0 mg/kg/injection, schedule: Q04DX003 (ip), vehicle: Klucel (hydroxypropylcellulose) (HPC)) 90 % of control.
For `Cc1cc(O)c2c(c1O)C(=O)c1cc(O)cc(O)c1C2=O`, the T/C runs as follows: (dose: 6.25 mg/kg/injection, schedule: Q01DX005 (ip), vehicle: saline + alcohol) 104 % of control; (dose: 12.5 mg/kg/injection, schedule: Q01DX005 (ip), vehicle: saline + alcohol) 101 % of control; (dose: 25.0 mg/kg/injection, schedule: Q01DX005 (ip), vehicle: saline + alcohol) 99 % of control.
Turning to `Cc1c([N+](=O)[O-])oc2ccc3ccccc3c12`, the T/C (dose: 60.0 mg/kg/injection, schedule: Q01DX005 (ip), vehicle: saline with Tween-80) is 113 % of control; the T/C (dose: 120.0 mg/kg/injection, schedule: Q01DX005 (ip), vehicle: saline with Tween-80) was 94 % of control; the T/C (dose: 240.0 mg/kg/injection, schedule: Q01DX005 (ip), vehicle: saline with Tween-80) was 107 % of control.
With `CCCCCCCC(=O)Nc1ccccc1CC`, the T/C is, setting by setting: (dose: 100.0 mg/kg/injection, schedule: Q04DX003 (ip), vehicle: other) 100 % of control; (dose: 200.0 mg/kg/injection, schedule: Q04DX003 (ip), vehicle: other) 100 % of control; (dose: 400.0 mg/kg/injection, schedule: Q04DX003 (ip), vehicle: other) 95 % of control.
With `CC[N+](C)(CC)C[Si](C)(C)c1ccccc1`, the T/C is, setting by setting: (dose: 12.5 mg/kg/injection, schedule: Q01DX005 (ip), vehicle: saline) 98 % of control; (dose: 25.0 mg/kg/injection, schedule: Q01DX005 (ip), vehicle: saline) 100 % of control; under setting [6], 105 % of control and 98 % of control.
On to `CC(=O)NCCN=Cc1ccccc1`, for which the T/C was 100 % of control under setting [3], 100 % of control under setting [4] and 100 % of control under setting [5].
Consider `CC(C)CC(NC(=O)C(CCCCN)N(C(=O)OCc1ccccc1)C(=O)OCc1ccccc1)C(=O)O` (stereo not given), for which the T/C is, setting by setting: (dose: 50.0 mg/kg/injection, schedule: Q01DX005 (ip), vehicle: saline with Tween-80) 99 % of control; (dose: 100.0 mg/kg/injection, schedule: Q01DX005 (ip), vehicle: saline with Tween-80) 99 % of control; (dose: 200.0 mg/kg/injection, schedule: Q01DX005 (ip), vehicle: saline with Tween-80) 90 % of control.
As to `Cn1c(=O)[nH]c(Cl)c(NC=O)c1=O`, the T/C reads like this: (dose: 25.0 mg/kg/injection, schedule: Q01DX005 (ip), vehicle: water) 98 % of control; (dose: 50.0 mg/kg/injection, schedule: Q01DX005 (ip), vehicle: water) 103 % of control; (dose: 100.0 mg/kg/injection, schedule: Q01DX005 (ip), vehicle: water) 98 % of control; (dose: 200.0 mg/kg/injection, schedule: Q01DX005 (ip), vehicle: water) 109 % of control.
Regarding `CC1CN(C(=S)NNC(C)c2cc3ccccc3cn2)CC(C)O1` (stereo not given), the T/C was 97 % of control (dose: 12.5 mg/kg/injection, schedule: Q01DX005 (ip), vehicle: saline with Tween-80) and 112 % of control (dose: 25.0 mg/kg/injection, schedule: Q01DX005 (ip), vehicle: saline with Tween-80).
For `CN(C=O)c1ccc(C(=O)NC(CCC(=O)O)C(=O)O)cc1` (stereo not given), the T/C reads like this: (dose: 60.0 mg/kg/injection, schedule: Q01DX005 (ip), vehicle: Klucel (hydroxypropylcellulose) (HPC)) 98 % of control; (dose: 120.0 mg/kg/injection, schedule: Q01DX005 (ip), vehicle: Klucel (hydroxypropylcellulose) (HPC)) 98 % of control; (dose: 240.0 mg/kg/injection, schedule: Q01DX005 (ip), vehicle: Klucel (hydroxypropylcellulose) (HPC)) 89 % of control.
